The values that follow come from patent publication US20120190752A1, “EXO-S-MECAMYLAMINE METHOD, USE, AND COMPOUND FOR TREATMENT” (Targacept Inc., priority 2009, published 2012).

In the assay the test system is subjects with major depressive disorder (MDD) who were inadequate responders to citalopram. Description: SDS (Sheehan Disability Scale), Phase 2b add-on trial. The assay is classed as in vivo, human. The settings on record: for SDS Difference vs placebo / SDS Adj. Mean change: ITT; for SDS Difference vs placebo: Week 8 to Week 16 LOCF; for SDS Adj. Mean change: change from Week 8 (double-blind baseline) to Week 16 LOCF, add-on to citalopram. The text has this:
The Sheehan Disability Scale (SDS) is widely used not only in psychiatry but also in many other chronic medical illnesses because of its generic design. It measures impairment in functioning. The scale generates 4 scores: a work disability score, a social life disability score, a family life disability score and a total score. A total score is generated through addition of the 3 individual scores (work: social life: family life). The maximum possible score is 30. In more detail, a multi-center double-blind, randomized, placebo-controlled, parallel group, flexible dose titration study of TC-5214 as adjunctive therapy in subjects with major depressive disorder (MDD) who were inadequate responders to citalopram was conducted in centers in the US and India. The study consisted of a screening period, baseline/washout period, open-label phase, double-blind phase, and a follow-up visit. Subject participation in the study could continue for up to 16 weeks of treatment. Following a washout period of up to 28 days for other antidepressants, subjects with MDD and a MADRS total score >/=28 and a Clinical Global Impression-Severity (CGI-S) score >/=4 were enrolled on Day 1 into an open-label citalopram-only phase of the study. This phase lasted 8 weeks, with citalopram (CIT) dose increased from a once-daily dose of 20 mg (Day 1 through Week 4) to 40 mg (Week 4 through Week 8). A total of 579 subjects entered the open-label citalopram phase. At Week 8, subjects who tolerated 40 mg CIT, but whose MADRS score was reduced <50% from baseline and no lower than 17, and CGI-S≧4, were considered inadequate responders. These subjects (n=270) were randomized in a double-blind fashion to receive either placebo or TC-5214-23 as add-on therapy to continued CIT. The double-blind phase of the study also lasted 8 weeks (Week 8 to Week 16). Study drug, TC-5214-23 or placebo, was started at 2 mg daily (1 mg twice per day [BID] dosing), added on to continuing CIT (40 mg PO qd). After 2 weeks of treatment, the dose of TC-5214 could be increased to 4 mg (2 mg BID) or continued unchanged, with up-titration based upon good tolerability and inadequate therapeutic response. After a further 2 weeks, the dose of TC-5214 could be increased again to 8 mg (4 mg BID) if judged appropriate by the investigator, based upon good tolerability and inadequate therapeutic response. At any time during the double-blind phase of the study, placebo or TC-5214-23 could be reduced to the previous dose level following the emergence of unacceptable adverse events (AEs). […] At this follow-up, any signs or symptoms of relapse were evaluated. If a subject was prematurely discontinued from the study between Week 8 and Week 16 for any reason, the investigator was to make every effort to perform all evaluations as per protocol, assuming the subject had reached the end of the double-blind add-on treatment phase. These evaluations were to be made as soon as possible and within 2 weeks of discontinuation. […] There was no meaningful difference in results as a function of age, gender, site, or smoking status. With regard to efficacy endpoints, the following tables present efficacy used in the ITT (Intent-to-Treat) and PP (Per Protocol) populations unless otherwise specific. The primary inference was based upon Week 16 visit using the ITT population. Change from baseline was obtained by subtracting the baseline values from the individual on-treatment values. Change from Week 16 was obtained by subtracting the Week 16 values from the individual follow-up visit (Week 18/19) values. If either the baseline or Week 16 or on-treatment or follow-up value was missing, the change from baseline or Week 16 value was also set to missing. To account for missing data, the last observation carry forward (LOCF) method was used for the ITT and PP populations. […]

Where [1] appears, read: ITT Population, Double Blind Week 16 LOCF, change from Week 8 (double-blind baseline).
The mark [2] stands for this setting: ITT Population, Double Blind Week 18 LOCF (Follow-up).
Where [3] appears, read: ITT and PP populations, result in words.
The mark [4] stands for this setting: PP Population, Double Blind Week 16 LOCF, change from Week 8 (double-blind baseline).
The mark [5] stands for this setting: PP Population, Double Blind Week 18 LOCF (Follow-up).

As to `CNC1(C)C2CCC(C2)C1(C)C` (stereo in doubt) [TC-5214, (S)—N,2,3,3-tetramethylnorbornan-2-amine], the “SDS Difference vs placebo” value is −4.49 (−5.96, −3.01) and the “SDS Adj. Mean change” value was −9.18 (0.53). Under setting [1], the “SDS change Adjusted Mean” value is listed as −9.18; the “SDS change Mean Difference between TC-5214 and Placebo” value is listed as 4.60. Also, under setting [2], the “SDS change Adjusted Mean” value is reported as −0.46; the “SDS change Mean Difference between TC-5214 and Placebo” value is on record as −0.23. Besides, under setting [3], the “SDS individual items (Work-School; Social Life; Life-Home Responsibilities) change from baseline compared with placebo” value is “statistically significant decreases (improvements)” and the “SDS score change from baseline compared with placebo” value is on record as “statistically significant decreases (improvements)”. Also, for the setting “listed as TC-5214 + CIT”, the “SDS Difference vs placebo” value is given as −4.49 and the “SDS Adj. Mean change” value was −9.18. Under setting [4], the “SDS change Adjusted Mean” value is −10.21; the “SDS change Mean Difference between TC-5214 and Placebo” value was found to be 4.86. In addition, under setting [5], the “SDS change Adjusted Mean” value was −0.44; the “SDS change Mean Difference between TC-5214 and Placebo” value is recorded as −0.20.
